Data published in ChEMBL document CHEMBL1671662, “In vitro activities of telavancin and six comparator agents against anaerobic bacterial isolates” (2009).
≈ marks a conversion by molar mass, not a printed value.

Experiments:
[1] = system: Bacteroides fragilis; experiment: Antibacterial activity against Bacteroides fragilis by CLSI M11-A6 agar dilution method; assay type: functional
[2] = system: Eggerthella lenta; experiment: Antibacterial activity against Eggerthella lenta by CLSI M11-A6 agar dilution method; assay type: functional
[3] = system: Peptoniphilus asaccharolyticus; experiment: Antibacterial activity against Peptoniphilus asaccharolyticus by CLSI M11-A6 agar dilution method; assay type: functional
[4] = system: Clostridium bartlettii; experiment: Antibacterial activity against Clostridium bartlettii by CLSI M11-A6 agar dilution method; assay type: functional; conditions: Intestinibacter bartlettii
[5] = system: Bifidobacterium pseudolongum; experiment: Antibacterial activity against Bifidobacterium pseudolongum by CLSI M11-A6 agar dilution method; assay type: functional
[6] = system: Ruminococcus albus; experiment: Antibacterial activity against Ruminococcus albus by CLSI M11-A6 agar dilution method; assay type: functional; conditions: Hominimerdicola alba
[7] = system: Prevotella melaninogenica; experiment: Antibacterial activity against Prevotella melaninogenica by CLSI M11-A6 agar dilution method; assay type: functional
[8] = system: Streptococcus anginosus; experiment: Antibacterial activity against Streptococcus anginosus by CLSI M11-A6 agar dilution method; assay type: functional
[9] = system: Phocaeicola vulgatus; experiment: Antibacterial activity against Bacteroides vulgatus by CLSI M11-A6 agar dilution method; assay type: functional
[10] = system: Clostridium disporicum; experiment: Antibacterial activity against Clostridium disporicum by CLSI M11-A6 agar dilution method; assay type: functional
[11] = system: Holdemania filiformis; experiment: Antibacterial activity against Holdemania filiformis by CLSI M11-A6 agar dilution method; assay type: functional
[12] = system: Paraclostridium bifermentans; experiment: Antibacterial activity against Clostridium bifermentans by CLSI M11-A6 agar dilution method; assay type: functional
[13] = system: Bifidobacterium adolescentis; experiment: Antibacterial activity against Bifidobacterium adolescentis by CLSI M11-A6 agar dilution method; assay type: functional
[14] = system: Propionibacterium propionicum; experiment: Antibacterial activity against Propionibacterium propionicus by CLSI M11-A6 agar dilution method; assay type: functional; conditions: Arachnia propionica
[15] = system: Clostridium tertium; experiment: Antibacterial activity against Clostridium tertium by CLSI M11-A6 agar dilution method; assay type: functional
[16] = system: Anaerococcus tetradius; experiment: Antibacterial activity against Anaerococcus tetradius by CLSI M11-A6 agar dilution method; assay type: functional
[17] = system: Streptococcus constellatus; experiment: Antibacterial activity against Streptococcus constellatus by CLSI M11-A6 agar dilution method; assay type: functional
[18] = system: [Clostridium] innocuum; experiment: Antibacterial activity against Clostridium innocuum by CLSI M11-A6 agar dilution method; assay type: functional
[19] = system: Bifidobacterium dentium; experiment: Antibacterial activity against Bifidobacterium dentium by CLSI M11-A6 agar dilution method; assay type: functional
[20] = system: Ruminococcus flavefaciens; experiment: Antibacterial activity against Ruminococcus flavefaciens by CLSI M11-A6 agar dilution method; assay type: functional
[21] = system: Prevotella intermedia; experiment: Antibacterial activity against Prevotella P intermedia by CLSI M11-A6 agar dilution method; assay type: functional
[22] = system: Ruminococcus torques; experiment: Antibacterial activity against Ruminococcus torques by CLSI M11-A6 agar dilution method; assay type: functional; conditions: Mediterraneibacter torques
[23] = system: Clostridium scindens; experiment: Antibacterial activity against Clostridium scindens by CLSI M11-A6 agar dilution method; assay type: functional
[24] = Antibacterial activity against Bifidobacterium infantis by CLSI M11-A6 agar dilution method; assay type: functional, Bifidobacterium longum subsp. infantis; conditions: Bifidobacterium longum
[25] = system: Fusobacterium mortiferum; experiment: Antibacterial activity against Fusobacterium mortiferum by CLSI M11-A6 agar dilution method; assay type: functional
[26] = system: Prevotella intermedia; experiment: Antibacterial activity against Prevotella intermedia by CLSI M11-A6 agar dilution method; assay type: functional
[27] = system: Thomasclavelia ramosa; experiment: Antibacterial activity against Clostridium ramosum by CLSI M11-A6 agar dilution method; assay type: functional
[28] = system: Prevotella buccae; experiment: Antibacterial activity against Prevotella buccae by CLSI M11-A6 agar dilution method; assay type: functional; conditions: Segatella buccae
[29] = system: Clostridium sporogenes; experiment: Antibacterial activity against Clostridium sporogenes by CLSI M11-A6 agar dilution method; assay type: functional
[30] = system: Prevotella oris; experiment: Antibacterial activity against Prevotella oris by CLSI M11-A6 agar dilution method; assay type: functional; conditions: Segatella oris
[31] = system: Prevotella denticola; experiment: Antibacterial activity against Prevotella P denticola by CLSI M11-A6 agar dilution method; assay type: functional
[32] = system: Bifidobacterium bifidum; experiment: Antibacterial activity against Bifidobacterium bifidum by CLSI M11-A6 agar dilution method; assay type: functional
[33] = system: Bifidobacterium breve; experiment: Antibacterial activity against Bifidobacterium breve by CLSI M11-A6 agar dilution method; assay type: functional
[34] = system: Clostridium spiroforme; experiment: Antibacterial activity against Clostridium spiroforme by CLSI M11-A6 agar dilution method; assay type: functional; conditions: Thomasclavelia spiroformis
[35] = system: Enterocloster clostridioformis; experiment: Antibacterial activity against Clostridium clostridioforme by CLSI M11-A6 agar dilution method; assay type: functional
[36] = system: Clostridium; experiment: Antibacterial activity against Clostridium hypermegas by CLSI M11-A6 agar dilution method; assay type: functional
[37] = system: Hoylesella oralis; experiment: Antibacterial activity against Prevotella oralis by CLSI M11-A6 agar dilution method; assay type: functional
[38] = system: Finegoldia magna; experiment: Antibacterial activity against Finegoldia magna by CLSI M11-A6 agar dilution method; assay type: functional
[39] = system: Bifidobacterium longum; experiment: Antibacterial activity against Bifidobacterium longum by CLSI M11-A6 agar dilution method; assay type: functional

Cc1ncc([N+](=O)[O-])n1CCO [METRONIDAZOLE]
MIC50 [1]: 1 µg/mL (≈ 5.84 µM) | MIC90 [1]: 2 µg/mL (≈ 11.7 µM) | MIC50 [2]: 1 µg/mL (≈ 5.84 µM) | MIC90 [2]: 128 µg/mL (≈ 748 µM) | MIC50 [3]: 0.5 µg/mL (≈ 2.92 µM) | MIC90 [3]: 2 µg/mL (≈ 11.7 µM) | MIC50 [4]: 0.25 µg/mL (≈ 1.46 µM) | MIC90 [4]: 1 µg/mL (≈ 5.84 µM) | MIC50 [5]: 1 µg/mL (≈ 5.84 µM) | MIC90 [5]: 128 µg/mL (≈ 748 µM) | MIC50 [6]: ≤ 0.12 µg/mL | MIC90 [6]: 0.25 µg/mL (≈ 1.46 µM) | MIC50 [7]: 0.5 µg/mL (≈ 2.92 µM) | MIC90 [7]: 1 µg/mL (≈ 5.84 µM) | MIC50 [8]: 128 µg/mL (≈ 748 µM) | MIC90 [8]: > 128 µg/mL | MIC50 [9]: 0.5 µg/mL (≈ 2.92 µM) | MIC90 [9]: 1 µg/mL (≈ 5.84 µM) | MIC50 [10]: 0.25 µg/mL (≈ 1.46 µM) | MIC90 [10]: 1 µg/mL (≈ 5.84 µM) | MIC50 [11]: 1 µg/mL (≈ 5.84 µM) | MIC90 [11]: 128 µg/mL (≈ 748 µM) | MIC50 [12]: 0.25 µg/mL (≈ 1.46 µM) | MIC90 [12]: 1 µg/mL (≈ 5.84 µM) | MIC50 [13]: 1 µg/mL (≈ 5.84 µM) | MIC90 [13]: 128 µg/mL (≈ 748 µM) | MIC50 [14]: 1 µg/mL (≈ 5.84 µM) | MIC90 [14]: 128 µg/mL (≈ 748 µM) | MIC50 [15]: 0.25 µg/mL (≈ 1.46 µM) | MIC90 [15]: 1 µg/mL (≈ 5.84 µM) | MIC50 [16]: 0.5 µg/mL (≈ 2.92 µM) | MIC90 [16]: 2 µg/mL (≈ 11.7 µM) | MIC50 [17]: 128 µg/mL (≈ 748 µM) | MIC90 [17]: > 128 µg/mL | MIC50 [18]: 0.5 µg/mL (≈ 2.92 µM) | MIC90 [18]: 4 µg/mL (≈ 23.4 µM) | MIC50 [19]: 1 µg/mL (≈ 5.84 µM) | MIC90 [19]: 128 µg/mL (≈ 748 µM) | MIC50 [20]: ≤ 0.12 µg/mL | MIC90 [20]: 0.25 µg/mL (≈ 1.46 µM) | MIC50 [21]: 0.5 µg/mL (≈ 2.92 µM) | MIC90 [21]: 1 µg/mL (≈ 5.84 µM) | MIC50 [22]: ≤ 0.12 µg/mL | MIC90 [22]: 0.25 µg/mL (≈ 1.46 µM) | MIC50 [23]: 0.25 µg/mL (≈ 1.46 µM) | MIC90 [23]: 1 µg/mL (≈ 5.84 µM) | MIC50 [24]: 1 µg/mL (≈ 5.84 µM) | MIC90 [24]: 128 µg/mL (≈ 748 µM) | MIC50 [25]: ≤ 0.12 µg/mL | MIC90 [25]: 0.25 µg/mL (≈ 1.46 µM) | MIC50 [26]: 0.5 µg/mL (≈ 2.92 µM) | MIC90 [26]: 1 µg/mL (≈ 5.84 µM) | MIC50 [27]: 0.5 µg/mL (≈ 2.92 µM) | MIC90 [27]: 1 µg/mL (≈ 5.84 µM) | MIC50 [28]: 0.5 µg/mL (≈ 2.92 µM) | MIC90 [28]: 1 µg/mL (≈ 5.84 µM) | MIC50 [29]: 0.25 µg/mL (≈ 1.46 µM) | MIC90 [29]: 1 µg/mL (≈ 5.84 µM) | MIC50 [30]: 0.5 µg/mL (≈ 2.92 µM) | MIC90 [30]: 1 µg/mL (≈ 5.84 µM) | MIC50 [31]: 0.5 µg/mL (≈ 2.92 µM) | MIC90 [31]: 1 µg/mL (≈ 5.84 µM) | MIC50 [32]: 1 µg/mL (≈ 5.84 µM) | MIC90 [32]: 128 µg/mL (≈ 748 µM) | MIC50 [33]: 1 µg/mL (≈ 5.84 µM) | MIC90 [33]: 128 µg/mL (≈ 748 µM) | MIC50 [34]: 0.25 µg/mL (≈ 1.46 µM) | MIC90 [34]: 1 µg/mL (≈ 5.84 µM) | MIC [35]: ≤ 0.12 µg/mL | MIC50 [35]: ≤ 0.12 µg/mL | MIC90 [35]: ≤ 0.12 µg/mL | MIC50 [36]: 0.25 µg/mL (≈ 1.46 µM) | MIC90 [36]: 1 µg/mL (≈ 5.84 µM) | MIC50 [37]: 0.5 µg/mL (≈ 2.92 µM) | MIC90 [37]: 1 µg/mL (≈ 5.84 µM) | MIC50 [38]: 0.5 µg/mL (≈ 2.92 µM) | MIC90 [38]: 2 µg/mL (≈ 11.7 µM) | MIC50 [39]: 1 µg/mL (≈ 5.84 µM) | MIC90 [39]: 128 µg/mL (≈ 748 µM)
